From patent US7056900B2, “Disaccharide derivatives for treating hyperglycaemia” (Sudzucker Aktiengesellschaft Mannheim Ochsenfurt, priority 1997, dated 2006)
Entries after “also recorded” stand apart in the source; their conditions may differ. Read-outs that look alike come from different tables or passages of the source.

Experiments:
Assay type in all cases: biochemical, hog
sucrase/isomaltase (SI) [1] = target: T1, sucrase/isomaltase (SI) (Sus scrofa, UniProt P56729); assay: Cleavage on incubation (24 hours) with SI; conditions: 37° C.
T1 sequence (P56729 with tags, fused parts or gaps): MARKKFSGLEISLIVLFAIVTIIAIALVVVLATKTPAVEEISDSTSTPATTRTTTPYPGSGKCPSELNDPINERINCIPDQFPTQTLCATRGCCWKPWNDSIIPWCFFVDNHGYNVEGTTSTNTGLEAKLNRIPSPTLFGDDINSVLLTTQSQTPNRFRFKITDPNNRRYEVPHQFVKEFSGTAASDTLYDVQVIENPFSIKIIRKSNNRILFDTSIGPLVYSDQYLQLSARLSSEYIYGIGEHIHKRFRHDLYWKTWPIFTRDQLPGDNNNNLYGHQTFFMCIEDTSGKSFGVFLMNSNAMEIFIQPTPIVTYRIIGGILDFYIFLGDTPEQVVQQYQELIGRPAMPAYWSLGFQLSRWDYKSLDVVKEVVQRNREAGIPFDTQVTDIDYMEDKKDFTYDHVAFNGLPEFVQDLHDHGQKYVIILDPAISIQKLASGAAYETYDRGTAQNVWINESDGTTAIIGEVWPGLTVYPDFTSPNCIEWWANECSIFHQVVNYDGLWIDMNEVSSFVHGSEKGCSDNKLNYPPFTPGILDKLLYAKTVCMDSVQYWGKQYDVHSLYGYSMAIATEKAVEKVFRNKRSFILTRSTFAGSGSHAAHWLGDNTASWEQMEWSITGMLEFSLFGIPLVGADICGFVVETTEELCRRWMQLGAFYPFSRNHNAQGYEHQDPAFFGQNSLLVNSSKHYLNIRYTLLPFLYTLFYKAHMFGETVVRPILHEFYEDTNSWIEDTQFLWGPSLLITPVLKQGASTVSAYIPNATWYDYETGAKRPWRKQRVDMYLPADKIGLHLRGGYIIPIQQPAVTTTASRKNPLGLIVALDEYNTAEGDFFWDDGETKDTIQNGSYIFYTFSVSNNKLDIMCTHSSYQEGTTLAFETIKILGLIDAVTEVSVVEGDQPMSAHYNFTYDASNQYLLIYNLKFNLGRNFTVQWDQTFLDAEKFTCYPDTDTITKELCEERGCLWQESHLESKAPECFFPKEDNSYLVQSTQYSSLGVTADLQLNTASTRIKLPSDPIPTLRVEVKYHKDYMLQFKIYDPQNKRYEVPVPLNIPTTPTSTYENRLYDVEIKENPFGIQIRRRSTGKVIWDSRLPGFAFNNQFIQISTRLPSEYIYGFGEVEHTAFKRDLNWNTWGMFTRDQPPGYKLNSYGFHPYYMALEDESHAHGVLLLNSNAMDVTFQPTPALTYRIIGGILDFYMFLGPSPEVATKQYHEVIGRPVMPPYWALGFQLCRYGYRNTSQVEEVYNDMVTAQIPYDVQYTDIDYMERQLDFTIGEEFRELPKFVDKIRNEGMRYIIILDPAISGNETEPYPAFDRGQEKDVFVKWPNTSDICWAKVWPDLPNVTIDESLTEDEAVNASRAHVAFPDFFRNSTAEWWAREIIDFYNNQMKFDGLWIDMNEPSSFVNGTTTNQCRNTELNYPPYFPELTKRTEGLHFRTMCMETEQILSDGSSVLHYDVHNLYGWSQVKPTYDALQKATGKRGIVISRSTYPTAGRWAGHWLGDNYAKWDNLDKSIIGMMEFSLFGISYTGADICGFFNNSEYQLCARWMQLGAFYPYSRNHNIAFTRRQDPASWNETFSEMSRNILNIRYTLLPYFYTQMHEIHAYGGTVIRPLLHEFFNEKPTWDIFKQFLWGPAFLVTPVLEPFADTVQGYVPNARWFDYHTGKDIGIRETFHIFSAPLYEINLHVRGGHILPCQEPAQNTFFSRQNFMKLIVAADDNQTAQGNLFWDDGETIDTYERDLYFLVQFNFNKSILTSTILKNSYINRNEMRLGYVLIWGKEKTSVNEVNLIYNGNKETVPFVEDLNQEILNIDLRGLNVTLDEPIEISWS
Method: (§1) Sucrase/isomaltase (SI) and glucoamylase/maltase (GM) were isolated by papain digestion from hog small intestine mucosa and enriched by ammoniumsulfate precipitation. […] D) A study was first made as to what extent the inventive disaccharide derivatives and comparison substances, that is to say sucrose and maltose, were cleaved by SI or by GM during incubation for 24 hours. [table]

[2] = tested on: glucoamylase/maltase (GM); assay: Inhibition of GM-catalyzed hydrolysis of maltose (GM/maltose), coupled HK/G6PDH optical test; conditions: for KM/Ki / inhibitor strength (in words) / Ki: GM/maltose; for Ki: secondary Lineweaver-Burk plots
Method: (§2) The maltase activity was studied using the substrate maltose. Sucrase/isomaltase (SI) and glucoamylase/maltase (GM) were isolated by papain digestion from hog small intestine mucosa and enriched by ammoniumsulfate precipitation. […] B) In the methods described hereinafter for determining the enzyme activity of sucrase/isomaltase and glucoamylase/maltase under the influence of the substances tested, the amount of glucose or fructose released was determined as measured parameter. This took place in an enzymatic optical test using hexokinase (HK) and glucose-6-phosphate dehydrogenase (G6PDH) as a coupled detection system (Beutler, H.-O.; in: Methods of Enzymatic Analysis; Bergmeyer, H. U.; Bergmeyer, […] edition; Vol. […] The measurement was made at 37° C. and a pH of 7.0. The table below reports the composition of the assays necessary for the individual tests. In individual tests, the semimicro assay was used, but this was reduced in some cases to a micro assay. […] C) Before the inhibitor strengths were determined, for each enzyme-substrate combination basic kinetics were established in which not only the Michaelis-Menten constant (KM [mmol/l]) but also the maximum velocity (Vmax [μmol/mLmin]) were determined. […] The level of the inhibitor concentrations used depended on the strength of the resulting inhibition. For each of the enzyme-substrate combinations, 3 to 4 sets of kinetics at different inhibitor concentrations were established. The inhibitor constants Ki and Kii were, unless stated otherwise, determined from secondary Lineweaver-Burk plots.

[3] = tested on: glucoamylase/maltase (GM); assay: Cleavage on incubation (24 hours) with GM; conditions: 37° C.
Method: as §1

sucrase/isomaltase (SI) [4] = target: T1, sucrase/isomaltase (SI); assay: Inhibition of SI-catalyzed hydrolysis of isomaltose (SI/isomaltose), coupled HK/G6PDH optical test; parameters: isolated by papain digestion from hog small intestine mucosa and enriched by ammoniumsulfate precipitation; from tissue; host or cells: hog small intestine mucosa; key to Type (of inhibition): K means competitive inhibition; NK means noncompetitive inhibition; UK means uncompetitive inhibition; conditions: for KM/Ki / Type (of inhibition) / inhibitor strength (in words) / Ki: SI/isomaltose; for Ki: secondary Lineweaver-Burk plots
Description: (§3) A) The activity of the SI enzyme complex was studied using three different substrates, that is to say sucrose, maltose and isomaltose.
The isomaltase activity was studied using the substrate isomaltose.
(§4) Sucrase/isomaltase (SI) and glucoamylase/maltase (GM) were isolated by papain digestion from hog small intestine mucosa and enriched by ammoniumsulfate precipitation. The enzymes were separated into isolated sucrase/isomaltase (SI) and glucoamylase/maltase (GM) via an ion exchanger (DEAE cellulose), and a following fine fractionation using gel filtration on a Superdex 200 column from Pharmacia.
(§5) B) In the methods described hereinafter for determining the enzyme activity of sucrase/isomaltase and glucoamylase/maltase under the influence of the substances tested, the amount of glucose or fructose released was determined as measured parameter. This took place in an enzymatic optical test using hexokinase (HK) and glucose-6-phosphate dehydrogenase (G6PDH) as a coupled detection system (Beutler, H.-O.; in: Methods of Enzymatic Analysis; Bergmeyer, H. U.; Bergmeyer, J.; Graβl, M. (editors); 3rd edition; Vol. VI, 2–10). The measurement was made at 37° C. and a pH of 7.0.
(§6) The table below reports the composition of the assays necessary for the individual tests. In individual tests, the semimicro assay was used, but this was reduced in some cases to a micro assay.
(§7) C) Before the inhibitor strengths were determined, for each enzyme-substrate combination basic kinetics were established in which not only the Michaelis-Menten constant (KM [mmol/l]) but also the maximum velocity (Vmax [μmol/mLmin]) were determined. For the enzyme/substrate combination SI/sucrose, a substrate concentration of from 1.24 to 124 mmol/L was used, for the enzyme/substrate combination SI/maltose a substrate concentration of from 0.62 to 24.8 mmol/L was used, for the enzyme/substrate combination SI/isomaltose a substrate concentration of from 3.6 to 57.6 mmol/L was used and for the enzyme/substrate combination GM/maltose a substrate concentration of from 0.31 to 12.4 mmol/L was used in the assay.
(§8) The level of the inhibitor concentrations used depended on the strength of the resulting inhibition. For each of the enzyme-substrate combinations, 3 to 4 sets of kinetics at different inhibitor concentrations were established. The inhibitor constants Ki and Kii were, unless stated otherwise, determined from secondary Lineweaver-Burk plots.

sucrase/isomaltase (SI) [5] = target: T1, sucrase/isomaltase (SI); assay: Inhibition of SI-catalyzed hydrolysis of maltose (SI/maltose), coupled HK/G6PDH optical test
Description: as §2, with “A) The activity of the SI enzyme complex was studied using three different substrates, that is to say sucrose, maltose and isomaltose. The maltase” for “The maltase”

sucrase/isomaltase (SI) [6] = target: T1, sucrase/isomaltase (SI); assay: Inhibition of SI-catalyzed hydrolysis of sucrose (SI/sucrose), coupled HK/G6PDH optical test
Description: as §3, §4, §5, §6, §7, §8

[7] = cleavage product detected: glucose
[8] = cleavage product detected: fructose
[9] = SI/maltose, secondary Lineweaver-Burk plots, read-out: Ki
[10] = SI/maltose, secondary Lineweaver-Burk plots, read-out: Kii
[11] = SI/sucrose, secondary Lineweaver-Burk plots, read-out: Ki
[12] = SI/sucrose, secondary Lineweaver-Burk plots, read-out: Kii

Row | SI conversion rate (sucrase/isomaltase (SI) [1]; [7]) [%] | Molecule | GM conversion rate [3, 7] [%] | SI conversion rate (sucrase/isomaltase (SI) [1]; [8]) [%] | KM/Ki (sucrase/isomaltase (SI) [4]) | Type (of inhibition) (sucrase/isomaltase (SI) [4]) | inhibitor strength (in words) (sucrase/isomaltase (SI) [4]) | KM/Ki [2] | inhibitor strength (in words) [2] | Ki ([2]; read-out: Ki) [mM] | Ki ([2]; read-out: Kii) [mM] | GM conversion rate [3, 8] [%] | KM/Ki (sucrase/isomaltase (SI) [5]; SI/maltose) | inhibitor strength (in words) (sucrase/isomaltase (SI) [5]; SI/maltose) | KM/Ki (sucrase/isomaltase (SI) [6]; SI/sucrose) | inhibitor strength (in words) (sucrase/isomaltase (SI) [6]; SI/sucrose) | Ki (sucrase/isomaltase (SI) [5]; [9]) [mM] | Ki (sucrase/isomaltase (SI) [5]; [10]) [mM] | Ki (sucrase/isomaltase (SI) [6]; [11]) [mM] | Ki (sucrase/isomaltase (SI) [6]; [12]) [mM] | also measured
1 | 100 | OC[C@H]1O[C@H](O[C@H]2[C@H](O)[C@@H](O)C(O)O[C@@H]2CO)[C@H](O)[C@@H](O)[C@@H]1O (mixture of isomers) [Maltose, reference compound] | 95.7 |  |  |  |  |  |  |  |  |  |  |  |  |  |  |  |  |  | Km ([2]; GM/maltose basic kinetics, substrate, mean, 37° C., pH 7.0): 4.2 ± 1 mM; Vmax ([2]; GM/maltose basic kinetics, enzyme solution with maltase activity of 5 U/mL): 4.8 ± 0.7 U/mL
2 |  | N[C@H]1[C@H](O)[C@@H](CO)O[C@@]1(CO)O[C@H]1O[C@H](CO)[C@@H](O)[C@H](O)[C@H]1O [3′-aminosucrose] |  | 0 | 8.2 | K | strong to very strong | 3.1 | to a high percentage even at very low concentrations; also recorded: strong to very strong | 1 | 17 | 0 | 2113 | to a high percentage even at very low concentrations; also recorded: strong to very strong | 11530 | to a high percentage even at very low concentrations; also recorded: strong to very strong |  |  |  |  | enzymatic activity (sucrase/isomaltase (SI) [5]; SI/maltose, inhibitor concentration of 1 mmol/L): no longer measurable; Ki (sucrase/isomaltase (SI) [5]; SI/maltose, with preincubation, Dixon evaluation, read-out: Ki): 0.0046 mM; Ki (sucrase/isomaltase (SI) [5]; SI/maltose, with preincubation, Henderson evaluation, read-out: Ki): 0.0046 mM; Ki (sucrase/isomaltase (SI) [5]; SI/maltose, without preincubation, Dixon evaluation, read-out: Ki): 0.0054 mM; Ki (sucrase/isomaltase (SI) [5]; SI/maltose, without preincubation, Henderson evaluation, read-out: Ki): 0.0052 mM; maltose hydrolysis inhibited (sucrase/isomaltase (SI) [5]; concentration of 5 μmol/mL): about 50%; enzymatic activity (sucrase/isomaltase (SI) [6]; SI/sucrose, inhibitor concentration of 1 mmol/L): no longer measurable; Ki (sucrase/isomaltase (SI) [6]; SI/sucrose, with preincubation, Dixon evaluation, read-out: Ki): 0.0065 mM; Ki (sucrase/isomaltase (SI) [6]; SI/sucrose, with preincubation, Henderson evaluation, read-out: Ki): 0.0063 mM; Ki (sucrase/isomaltase (SI) [6]; SI/sucrose, without preincubation, Dixon evaluation, read-out: Ki): 0.0052 mM; Ki (sucrase/isomaltase (SI) [6]; SI/sucrose, without preincubation, Henderson evaluation, read-out: Ki): 0.005 mM; sucrose hydrolysis inhibited (sucrase/isomaltase (SI) [6]; concentration of 5 μmol/mL): about 30%
3 |  | O=C(O)C1OC(OCC2OC(O)(CO)C(O)C2O)C(O)C(O)C1O (centres unmarked) [Pal-C6′S, palatinose-C6′-acid] |  | 0.4 | 3.7 | K | strong to very strong | 0.22 | inhibitory action | 20 |  | 0.1 | 0.7 | inhibitory action | 8.4 | strong to very strong | 16 | 31 | 7 | 8 | 
4 | 85 | OC[C@H]1O[C@@](CO)(O[C@H]2O[C@H](CO)[C@@H](O)[C@H](O)[C@H]2O)[C@@H](O)[C@@H]1O [Sucrose, reference compound] |  | 87 |  |  |  |  |  |  |  |  |  |  |  |  |  |  |  |  | 
5 |  | OC[C@H]1O[C@H](OC[C@H]2OC(O)[C@H](O)[C@@H](O)[C@@H]2O)[C@H](O)[C@@H](O)[C@@H]1O (some centres unmarked) [isomaltose, reference compound] |  |  |  |  |  |  |  |  |  |  |  |  |  |  |  |  |  |  | Km (sucrase/isomaltase (SI) [4]; SI/isomaltose basic kinetics, substrate, mean, 37° C., pH 7.0): 73.9 ± 6.8 mM; Vmax (sucrase/isomaltase (SI) [4]; SI/isomaltose basic kinetics, enzyme solution with maltase activity of 5 U/mL): 3.07 ± 0.18 U/mL

Row | Molecule | SI conversion rate (sucrase/isomaltase (SI) [1]; [7]) [%] | GM conversion rate [3, 7] [%] | SI conversion rate (sucrase/isomaltase (SI) [1]; [8]) [%] | KM/Ki (sucrase/isomaltase (SI) [4]) | Type (of inhibition) (sucrase/isomaltase (SI) [4]) | inhibitor strength (in words) (sucrase/isomaltase (SI) [4]) | KM/Ki [2] | inhibitor strength (in words) [2] | Ki ([2]; read-out: Ki) [mM] | Ki ([2]; read-out: Kii) [mM] | GM conversion rate [3, 8] [%] | KM/Ki (sucrase/isomaltase (SI) [5]; SI/maltose) | inhibitor strength (in words) (sucrase/isomaltase (SI) [5]; SI/maltose) | KM/Ki (sucrase/isomaltase (SI) [6]; SI/sucrose) | inhibitor strength (in words) (sucrase/isomaltase (SI) [6]; SI/sucrose) | Ki (sucrase/isomaltase (SI) [5]; [9]) [mM] | Ki (sucrase/isomaltase (SI) [5]; [10]) [mM] | Ki (sucrase/isomaltase (SI) [6]; [11]) [mM] | Ki (sucrase/isomaltase (SI) [6]; [12]) [mM] | also measured
6 | sucrose-C6-acid [Suc-C6S] | 2 | 0 |  | 1 | NK | strong to very strong |  |  |  | 4 |  | 0.26 | inhibitory action | 6.2 | strong to very strong | 43 | 5 | 9 | 9 | Ki (sucrase/isomaltase (SI) [4]; read-out: Ki): 73 mM; Ki (sucrase/isomaltase (SI) [4]; read-out: Kii): 3 mM
